# According to ChEMBL document CHEMBL5352476, “A comprehensive overview of Artemisinin and its derivatives as anticancer agents” (Eur J Med Chem, 2023):
# How the values were obtained:
# HepG2 = assay: Antiproliferative activity against human HepG2 cells assessed as inhibition of cell growth by MTT assay; format: functional, cell-based
# RPMI-7951 = assay: Antiproliferative activity against human RPMI-7951 cells assessed as inhibition of cell growth incubated for 24 hrs by MTT assay; format: functional, cell-based; conditions: RPMI-7951, 24 h
# RL95-2 = assay: Antiproliferative activity against human RL95-2 cells assessed as inhibition of cell growth by MTT assay; format: functional, cell-based; conditions: pooled result: one value given for 6 cell lines, strains, targets or settings
# Mus musculus = assay: Antitumor activity against human RL95-2 cells xenografted in BALB/c nude mouse assessed as tumor growth inhibition rate at 5.0 mg/kg, ip administered three times a week for 4 weeks relative to control; format: functional; conditions: RL95-2, 672 h
# A549 [1] = assay: Antitumor activity against human A549 cells xenografted in nude mouse assessed as tumor growth inhibition rate relative to control; format: functional
# [2] = Antiproliferative activity against mouse Lewis lung carcinoma cell line assessed as inhibition of cell growth incubated for 48 hrs by MTT assay; format: functional, cell-based
# A549 [3] = assay: Antiproliferative activity against human A549 cells assessed as inhibition of cell growth incubated for 96 hrs by MTT assay; format: functional, cell-based; conditions: A549, 96 h
# [4] = Cytotoxicity against human CCD 19Lu cells assessed as inhibition of cell growth; format: toxicity, cell-based
# HT-29 [5] = assay: Antiproliferative activity against human HT-29 cells overexpressing carbonic anhydrase IX assessed as inhibition of cell growth incubated for 96 hrs under hypoxic condition by MTT assay; format: functional, cell-based; conditions: HT-29, 96 h
# [6] = Cytotoxicity against human MCF-10A cells assessed as inhibition of cell growth incubated for 96 hrs by MTT assay; format: toxicity, cell-based
# HT-29 [7] = assay: Antiproliferative activity against human HT-29 cells assessed as inhibition of cell growth incubated for 96 hrs by MTT assay; format: functional, cell-based; conditions: HT-29, 96 h
# MDA-MB-231 [8] = assay: Antiproliferative activity against human MDA-MB-231 cells assessed as inhibition of cell growth incubated for 96 hrs by MTT assay; format: functional, cell-based; conditions: MDA-MB-231, 96 h
# NCI-H460 = assay: Antiproliferative activity against human NCI-H460 cells assessed as inhibition of cell growth incubated for 72 hrs by MTT assay; format: functional, cell-based; conditions: NCI-H460, 72 h
# MDA-MB-231 [9] = assay: Antiproliferative activity against human MDA-MB-231 cells assessed as inhibition of cell growth incubated for 72 hrs by MTT assay; format: functional, cell-based; conditions: MDA-MB-231, 72 h
# HT-29 [10] = assay: Antiproliferative activity against human HT-29 cells assessed as inhibition of cell growth incubated for 72 hrs by MTT assay; format: functional, cell-based; conditions: HT-29, 72 h
# HeLa [11] = assay: Antiproliferative activity against human HeLa cells assessed as inhibition of cell growth incubated for 72 hrs by MTT assay; format: functional, cell-based
# U-87 MG = assay: Antiproliferative activity against human U-87 MG cells assessed as inhibition of cell growth incubated for 72 hrs by MTT assay; format: functional, cell-based, U-87MG ATCC
# [12] = Cytotoxicity against human L02 cells assessed as inhibition of cell growth incubated for 72 hrs by MTT assay; format: toxicity, cell-based
# U-118-MG = assay: Antiproliferative activity against human U-118-MG cells assessed as inhibition of cell growth incubated for 72 hrs by MTT assay; format: functional, cell-based
# SH-SY5Y = assay: Antiproliferative activity against human SH-SY5Y cells assessed as inhibition of cell growth incubated for 72 hrs by MTT assay; format: functional, cell-based
# MCF7 = assay: Antiproliferative activity against human MCF7 cells assessed as inhibition of cell growth incubated for 72 hrs by MTT assay; format: functional, cell-based; conditions: MCF7, 72 h
# HCT-116 [13] = assay: Antiproliferative activity against human HCT-116 cells assessed as inhibition of cell growth incubated for 72 hrs by MTT assay; format: functional, cell-based; conditions: HCT-116, 72 h
# PC-12 = assay: Antiproliferative activity against PC-12 cells assessed as inhibition of cell growth incubated for 72 hrs by MTT assay; format: functional, cell-based; conditions: Rattus norvegicus, PC-12, 72 h
# A549 [14] = assay: Antiproliferative activity against human A549 cells assessed as inhibition of cell growth incubated for 72 hrs by MTT assay; format: functional, cell-based; conditions: A549, 72 h
# HCT-116 [15] = assay: Antiproliferative activity against human HCT-116 cells assessed as inhibition of cell growth; format: functional, cell-based
# HeLa [16] = assay: Antiproliferative activity against human HeLa cells assessed as inhibition of cell growth; format: functional, cell-based
# MDA-MB-231 [17] = assay: Antiproliferative activity against human MDA-MB-231 cells assessed as inhibition of cell growth; format: functional, cell-based
# SK-BR-3 = assay: Antiproliferative activity against human SK-BR-3 cells assessed as inhibition of cell growth; format: functional, cell-based
compound,measurement,setting,value
CCCCCCCCCCCC[C@H](O)C[C@H]1O[C@@H]2O[C@@]3(C)CC[C@H]4[C@H](C)CC[C@@H]([C@H]1C)[C@@]24OO3,IC50,HepG2,2800 nM
COC(=O)C(Cc1ccc(OC(=O)CCC(=O)O[C@@H]2O[C@@H]3O[C@@]4(C)CC[C@H]5[C@H](C)CC[C@@H]([C@H]2C)[C@@]35OO4)cc1)NC(=O)CCC(=O)O[C@@H]1O[C@@H]2O[C@@]3(C)CC[C@H]4[C@H](C)CC[C@@H]([C@H]1C)[C@@]24OO3 (stereo partly specified),IC50,RPMI-7951,1760 nM
C[C@H]1[C@@H](OCCNCCO[C@H]2O[C@@H]3O[C@@]4(C)CC[C@H]5[C@H](C)CC[C@@H]([C@H]2C)[C@@]35OO4)O[C@@H]2O[C@@]3(C)CC[C@H]4[C@H](C)CC[C@@H]1[C@@]24OO3,IC50,RL95-2,1160 nM
same,inhibition in vivo at 5 mg/kg,Mus musculus,49.9%
C[C@H]1[C@@H](O)O[C@@H]2O[C@@]3(C)CC[C@H]4[C@H](C)CC[C@@H]1[C@@]24OO3 [ARTENIMOL],inhibition (INH),A549 [1],54.3%
same,IC50,[2],53100 nM
same,IC50,A549 [3],230 nM
CCCCCCCCCCCC[C@@H](O)C[C@H]1O[C@@H]2O[C@@]3(C)CC[C@H]4[C@H](C)CC[C@@H]([C@H]1C)[C@@]24OO3,IC50,HepG2,4400 nM
CCCCCCCCNC(=O)C[C@H]1O[C@@H]2O[C@@]3(C)CC[C@H]4[C@H](C)CC[C@@H]([C@H]1C)[C@@]24OO3,IC50,HepG2,9500 nM
C[C@H]1[C@H](OC(=O)CCC(=O)NCCc2ccc(OC(=O)CCC(=O)O[C@@H]3O[C@@H]4O[C@@]5(C)CC[C@H]6[C@H](C)CC[C@@H]([C@H]3C)[C@@]46OO5)cc2)O[C@@H]2O[C@@]3(C)CC[C@H]4[C@H](C)CC[C@@H]1[C@@]24OO3,IC50,RPMI-7951,2450 nM
CCCCCCCCCCCCCCNC(=O)C[C@H]1O[C@@H]2O[C@@]3(C)CC[C@H]4[C@H](C)CC[C@@H]([C@H]1C)[C@@]24OO3,IC50,[4],460 nM
C[C@H]1[C@@H](OCCc2cn(-c3ccc(S(N)(=O)=O)cc3)nn2)O[C@@H]2O[C@@]3(C)CC[C@H]4[C@H](C)CC[C@@H]1[C@@]24OO3,IC50,HT-29 [5],650 nM
same,IC50 at 96 h,[6],78000 nM
same,IC50,HT-29 [7],1920 nM
same,IC50,MDA-MB-231 [8],1920 nM
COc1ccc(OC)c(/C=C/C(=O)c2ccc(OCC(=O)N[C@@H]3O[C@@H]4O[C@@]5(C)CC[C@H]6[C@H](C)CC[C@@H]([C@H]3C)[C@@]46OO5)cc2)c1,IC50,NCI-H460,190 nM
same,IC50,MDA-MB-231 [9],190 nM
same,IC50,HT-29 [10],190 nM
same,IC50,HeLa [11],190 nM
C[C@@H]1CC[C@H]2[C@@H](C)C(N3CCN(C(=O)Oc4ccc(SC(F)(F)F)cc4)CC3)O[C@@H]3O[C@@]4(C)CC[C@@H]1[C@]32OO4 (stereo partly specified),IC50,U-87 MG,≥ 120 nM
same,IC50 at 72 h,[12],12500 nM
same,IC50,U-118-MG,≥ 120 nM
same,IC50,SH-SY5Y,≥ 120 nM
same,IC50,MCF7,≥ 120 nM
same,IC50,HCT-116 [13],120 nM
same,IC50,PC-12,≥ 120 nM
same,IC50,A549 [14],≥ 120 nM
C[C@H]1[C@@H](CCCOC(=O)NCCC[P+](c2ccccc2)(c2ccccc2)c2ccccc2)O[C@@H]2O[C@@]3(C)CC[C@H]4[C@H](C)CC[C@@H]1[C@@]24OO3,IC50,HCT-116 [15],820 nM
same,IC50,HeLa [16],820 nM
same,IC50,MDA-MB-231 [17],820 nM
same,IC50,SK-BR-3,820 nM
